Key:
CMV IgG-positive sera = assay: ELISA on peptide-coated microtiter plates with HCMV-positive human sera (localization of epitopes); assay type: binding; conditions: plates coated with 2.5 μg peptide per ml, serum 1:2; for Reactivity (individual reactivities of the synthetic pXP1 segments with the assayed group of CMV IgG-positive sera): Table 2; for Reactivity (individual reactivities of particularly reactive peptides with the assayed group of CMV IgG-positive sera): Table 3
Procedure: A microtiter plate with 96 wells was coated with a synthesized peptide. To do this, a solution of 2.5 μg of peptide per ml of carbonate buffer was made up and introduced in 100 μl portions into the wells for the coating. The peptides were adsorbed onto the surfaces at 4° C. overnight and, after removal of the peptide solution, the wells were washed several times with washing buffer (50 mM Tris, pH 7.2, 10 mM EDTA, 0.2% Tween 20). Then individual human serum samples in a 1:2 dilution were introduced and incubated at 37° C. for 1 hour. After another washing step, the conjugate antibody specific for human IgG antibodies or human IgM antibodies and labeled with peroxidase was added and the mixture was incubated at room temperature for 0.5 hour. The reaction was subsequently stopped by adding 0.5 M sulfuric acid and extinction of the individual samples was measured at a wavelength of 450/650 nm in a photometer.
To test the immunogenicity, peptides of various length from the complete amino-acid sequence region from 718 to 880 of the HCMV protein pp150 (Tab. 2 and 3) were synthesized as described in Example 1. Subsequently, as in Example 2, the microtiter plates were coated with the synthesized peptides, and the immunological reactivity was assayed. […] The three immunologically reactive peptides have the following sequences: […]

[1] = test system: monoclonal antibody 87-55/02; assay: Reaction of monoclonal antibody 87-55/02 with peptide-coated ELISA plate; assay type: binding; conditions: immunoblot and ELISA reactivity
From the text: It was concluded from the method for selecting the monoclonal antibody that the identified epitope must have a very important structure which is not even destroyed by denaturation of the complete protein. This monoclonal antibody correspondingly reacts both with the synthesized peptide 2.7 (SEQ ID NO:26) and with the recombinant protein XP1 (SEQ ID NO:33) and the pp150 protein of HCMV.

| Molecule | Reactivity (individual reactivities of the synthetic pXP1 segments with the assayed group of CMV IgG-positive sera) (CMV IgG-positive sera) [%] | Reactivity (individual reactivities of particularly reactive peptides with the assayed group of CMV IgG-positive sera) (CMV IgG-positive sera) [%] | reaction with monoclonal antibody 87-55/02 [1] |
| --- | --- | --- | --- |
| ala ser arg asp ala ala asp glu val trp ala leu arg asp gln thr ala (ASRDAADEVWALRDQTA) [Peptide 3.2] | 80 | 80 |  |
| ala tyr lys phe glu gln pro thr leu thr phe gly ala gly val asn val pro ala gly ala gly ala ala ile leu thr pro thr pro val asn pro ser thr ala pro ala pro ala pro (AYKFGQPTLTFGAGVNVPAGAGAAILTPTPVNPSTAPAPAP) [Peptide 1.13] |  | 90 |  |
| arg ala trp ala leu lys asn pro his leu ala tyr asn pro phe (RAWALKNPHLAYNPF) [Peptide 2.10] | 80 | 80 |  |
| phe glu gln pro thr leu thr phe gly ala gly val asn val pro ala gly ala gly ala ala ile leu thr pro thr pro val asn pro ser thr ala pro ala pro ala (FEQPTLTFGAGVNVPAGAGAAILTPTPVNPSTAPAPA) [Peptide 1.4] |  | 90 |  |
| pro ala gly ala gly ala ala ile leu thr pro thr pro val asn pro ser thr ala pro ala pro ala pro thr pro thr phe ala gly thr (PAGAGAAILTPTPVNPSTAPAPAPTPTFAGT) [Peptide 1.10] |  | 80 |  |
| pro arg ala ala val thr gln thr ala ser arg asp ala ala (PRAAVTQTASRDAA) [Peptide 3.1] | 60 | 60 |  |
| XP1: recombinant protein section, amino acid 718-880 of HCMV protein pp150 (protein) DPRFTDTLVDITDTETSAKPPVTTAYKFEQPTLTFGAGVNVPAGAGAAILTPTPVNPSTAPAPAPTPTFAGTQTPVNGNSPWAPTAPLPGDMNPANWPRERAWALKNPHLAYNPFRMPTTSTASQNTVSTTPRRPSTPRAAVTQTASRDAADEVWALRDQTA |  |  | reacts |
| pp150: HCMV protein pp150 (protein, UniProt P08318 1-1048, looked up) Large structural …: MSLQFIGLQRRDVVALVNFLRHLTQKPDVDLEAHPKILKKCGEKRLHRRTVLFNELMLWLGYYRELRFHNPDLSSVLEEFEVRCVAVARRGYTYPFGDRGKARDHLAVLDRTEFDTDVRHDAEIVERALVSAVILAKMSVRETLVTAIGQTEPIAFVHLKDTEVQRIEENLEGVRRNMFCVKPLDLNLDRHANTALVNAVNKLVYTGRLIMNVRRSWEELERKCLARIQERCKLLVKELRMCLSFDSNYCRNILKHAVENGDSADTLLELLIEDFDIYVDSFPQSAHTFLGARSPSLEFDDDANLLSLGGGSAFSSVPKKHVPTQPLDGWSWIASPWKGHKPFRFEAHGSLAPAAEAHAARSAAVGYYDEEEKRRERQKRVDDEVVQREKQQLKAWEERQQNLQQRQQQPPPPARKPSASRRLFGSSADEDDDDDDDEKNIFTPIKKPGTSGKGAASGGGVSSIFSGLLSSGSQKPTSGPLNIPQQQQRHAAFSLVSPQVTKASPGRVRRDSAWDVRPLTETRGDLFSGDEDSDSSDGYPPNRQDPRFTDTLVDITDTETSAKPPVTTAYKFEQPTLTFGAGVNVPAGAGAAILTPTPVNPSTAPAPAPTPTFAGTQTPVNGNSPWAPTAPLPGDMNPANWPRERAWALKNPHLAYNPFRMPTTSTASQNTVSTTPRRPSTPRAAVTQTASRDAADEVWALRDQTAESPVEDSEEEDDDSSDTGSVVSLGHTTPSSDYNNDVISPPSQTPEQSTPSRIRKAKLSSPMTTTSTSQKPVLGKRVATPHASARAQTVTSTPVQGRLEKQVSGTPSTVPATLLQPQPASSKTTSSRNVTSGAGTSSASSARQPSASASVLSPTEDDVVSPATSPLSMLSSASPSPAKSAPPSPVKGRGSRVGVPSLKPTLGGKAVVGRPPSVPVSGSAPGRLSGSSRAASTTPTYPAVTTVYPPSSTAKSSVSNAPPVASPSILKPGASAALQSRRSTGTAAVGSPVKSTTGMKTVAFDLSSPQKSGTGPQPGSAGMGGAKTPSDAVQNILQKIEKIKNTEE |  |  | reacts |

Source: patent US6143493A, “HCMV-specific peptides, agents therefor and the use thereof” (Dade Behring Marburg GmbH, priority 1991, dated 2000)
